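Where inhibition never reached the appropriate level, the endpoint shown equals the highest concentration tested. Otherwise, values were interpolated linearly from a five-concentration, 48-hour dose response in 96-well plates. Abbreviation: GI50, concentration required for 50% inhibition of growth. TGI: total growth inhibition.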

Test systems include 786-0 renal; CAKI-1 renal; CCRF-CEM leukemia; DU-145 prostate; NCI-H522 lung; NCI/ADR-RES ovarian; OVCAR-3 ovarian; SK-OV-3 ovarian; SN12C renal; SNB-75 CNS.
Holding throughout (assay): DTP human tumour cell line panel, 48 h

Consider `C[C@@H]1CCC2[C@@H](C)[C@@H](OCC(CO[C@H]3OC4O[C@@]5(C)CC[C@H]6[C@H](C)CCC([C@H]3C)[C@@]46OO5)OC(=O)CCC(=O)O)OC3O[C@@]4(C)CC[C@@H]1[C@]32OO4` (stereo partly drawn), for which the GI50 was under 0.0151 µM with 786-0 renal; 0.022 µM in the experiment on CAKI-1 renal; under 0.0279 µM in the experiment on CCRF-CEM leukemia; 6.4 µM in the experiment on DU-145 prostate; 0.0628 µM in the experiment with NCI-H522 lung; 0.245 µM in the experiment on NCI/ADR-RES ovarian. The GI50 in the experiment on OVCAR-3 ovarian was 0.02 µM; with SK-OV-3 ovarian, 27.2 µM; in the experiment with SN12C renal, 0.374 µM; with SNB-75 CNS, 16.1 µM. Further, the TGI with 786-0 renal was 17.3 µM; in the experiment with CAKI-1 renal it was 0.477 µM; in the experiment on CCRF-CEM leukemia, over 47.3 µM; with DU-145 prostate, 27.3 µM; with NCI-H522 lung, 15.4 µM; with NCI/ADR-RES ovarian, 6.23 µM. Also, the TGI in the experiment with OVCAR-3 ovarian was 15.8 µM; in the experiment on SK-OV-3 ovarian, over 100 µM; in the experiment with SN12C renal it was 23.4 µM; in the experiment on SNB-75 CNS it was 36.6 µM.

Regarding `CC(C)C(C)/C=C\C(C)C1CCC2C3=CC=C4CC(O)CCC4(C)C3CCC21C` (stereo not drawn), the total growth inhibition concentration (TGI) is over 60.7 µM with 786-0 renal; over 60.4 µM in the experiment with CAKI-1 renal; over 66.9 µM with CCRF-CEM leukemia; over 100 µM with DU-145 prostate; over 100 µM in the experiment with NCI-H522 lung; over 70.7 µM in the experiment on NCI/ADR-RES ovarian. The TGI in the experiment with OVCAR-3 ovarian is over 80.5 µM; in the experiment with SK-OV-3 ovarian, over 100 µM; in the experiment on SN12C renal, over 60.2 µM; with SNB-75 CNS, over 73.1 µM.

For the compound `C=C1NC(=O)C(C(C)CC)NC(=O)C2CSCC(NC(=O)CCC(=O)O)C(=O)NC(Cc3ccccc3)C(=O)NC(C)C(=O)NC(CC(C)CC)C(=O)NC(C(=O)NC(Cc3ccccc3)C(=O)N3CCCC3C(=O)N2)C(C)OC(=O)C(CO)NC(=O)C(C(O)COC)N(C)C(=O)C(C(C)C)NC(=O)C(CC(C)CC)NC1=O` (stereo not drawn), the GI50 with 786-0 renal is 0.0358 µM; in the experiment on CAKI-1 renal, 0.0246 µM; in the experiment with CCRF-CEM leukemia, 0.0137 µM; with DU-145 prostate, 0.0238 µM; in the experiment on NCI-H522 lung, 0.00411 µM; in the experiment with NCI/ADR-RES ovarian, 0.0304 µM. For the same compound, the GI50 in the experiment on OVCAR-3 ovarian was 0.0118 µM; with SK-OV-3 ovarian it was 0.0243 µM; with SN12C renal, 0.0707 µM; with SNB-75 CNS, 0.0048 µM. The TGI in the experiment on 786-0 renal was over 6 µM; in the experiment with CAKI-1 renal, over 6 µM; in the experiment on CCRF-CEM leukemia, over 6 µM; with DU-145 prostate, over 6 µM; in the experiment on NCI-H522 lung it was 0.359 µM; with NCI/ADR-RES ovarian it was over 6 µM. In addition, the TGI in the experiment with SK-OV-3 ovarian, in the experiment with SN12C renal and in the experiment on SNB-75 CNS was over 6 µM in each case.

For `COc1cc2c3c(n(C)c(=O)c2cc1OC)-c1cc2c(cc1/C3=C\CCN)OCO2`, the GI50 is 0.132 µM with 786-0 renal; 0.112 µM with CAKI-1 renal; under 0.0104 µM with CCRF-CEM leukemia; 0.362 µM in the experiment on DU-145 prostate; 0.851 µM with NCI-H522 lung; 0.272 µM in the experiment on NCI/ADR-RES ovarian. For the same compound, the GI50 is 0.564 µM in the experiment with OVCAR-3 ovarian, 3.88 µM with SK-OV-3 ovarian, 0.583 µM in the experiment on SN12C renal and 6.05 µM with SNB-75 CNS. The concentration for total growth inhibition (TGI) in the experiment on 786-0 renal is 6.21 µM; with CAKI-1 renal, 3.02 µM; in the experiment on DU-145 prostate, 11.4 µM; with NCI-H522 lung it was over 100 µM; in the experiment on NCI/ADR-RES ovarian, 2.56 µM; with OVCAR-3 ovarian, 5.09 µM. Further, the TGI in the experiment with SK-OV-3 ovarian was over 62.8 µM; in the experiment with SN12C renal, 17.6 µM; in the experiment with SNB-75 CNS, over 59.9 µM.

For orientation: GI50 means the concentration giving 50% growth inhibition. Broadly, the TGI is the concentration giving total growth inhibition.
